Data reported in the NIST ThermoML archive (doi:10.1016/j.tca.2010.01.021).

Assay: molar heat capacity at constant pressure
Settings: 101.33 kPa, Crystal, Small (less than 1 g) adiabatic calorimetry

N.O=C(O)c1ccccc1 [ammonium benzoate]
Settings	molar heat capacity at constant pressure [J/K/mol]
80.23 K	65.17
81.77 K	66.19
84.03 K	67.46
86.2 K	68.89
88.38 K	69.94
90.56 K	71.51
92.57 K	72.72
94.64 K	74.19
96.64 K	75.8
98.62 K	77.01
100.55 K	78.03
102.41 K	79.33
104.34 K	80.86
106.2 K	81.8
107.97 K	83.16
109.83 K	84.27
111.6 K	85.3
113.37 K	86.37
115.15 K	87.62
116.84 K	88.74
118.61 K	90.01
120.31 K	91.47
122.97 K	92.89
126.27 K	94.89
129.18 K	96.99
132.16 K	98.85
135.06 K	100.95
138.04 K	102.77
141.02 K	104.57
144.01 K	106.24
147 K	108.24
149.93 K	110.5
152.9 K	112.26
155.86 K	113.91
158.85 K	116.09
161.8 K	118.15
164.77 K	120.01
167.74 K	121.97
170.72 K	124.05
173.71 K	125.52
176.67 K	127.13
179.65 K	129.42
183.76 K	131.94
187.79 K	134.2
190.78 K	136.42
193.75 K	138.62
196.71 K	140.39
199.69 K	142.17
202.71 K	144.2
205.7 K	146.13
208.67 K	148.09
211.63 K	149.94
214.62 K	152.01
217.63 K	153.98
220.61 K	155.64
223.59 K	157.46
226.57 K	159.31
229.56 K	161.33
232.46 K	163.12
235.52 K	164.85
238.67 K	166.71
242.46 K	169.25
246.17 K	170.85
249.15 K	172.58
252.13 K	174.29
255.04 K	176.25
258.02 K	177.81
261.08 K	179.36
264.07 K	180.92
267.13 K	182.91
270.11 K	184.57
273.1 K	186.5
276.05 K	188.1
279 K	189.37
281.97 K	190.96
284.95 K	192.56
287.93 K	194.07
291 K	195.71
293.98 K	197.29
296.96 K	199.56
299.95 K	200.88
302.93 K	203.11
305.83 K	204.55
308.82 K	205.93
311.72 K	207.7
314.7 K	209.41
317.68 K	210.92
320.75 K	212.63
323.73 K	214.01
326.71 K	215.52
329.78 K	216.96
332.76 K	218.8
335.75 K	220.31
338.73 K	222.08
341.71 K	223.72
344.61 K	225.36
347.6 K	226.81
350.5 K	228.38
353.48 K	229.7
356.55 K	231.21
359.53 K	232.72
362.59 K	234.1
365.58 K	235.61
368.56 K	237.58
371.54 K	239.09
374.53 K	240.86
377.51 K	242.44
380.49 K	243.95
383.4 K	245.72
386.3 K	247.56
389.28 K	249.39
392.35 K	251.17
395.33 K	252.68
398.31 K	254.12
